Source: ChEMBL document CHEMBL3352560, “Optimization of drug-like properties of nonsteroidal glucocorticoid mimetics and identification of a clinical candidate” (ACS Med Chem Lett, 2014)
In brackets after ≈: the same amount, converted by molar mass.

Tests used:
physchem = conditions: buffer, pH 6.8
[1] = buffer, pH 6.8, 24 h
in vivo = conditions: rat

| Compound | solubility thermodynamic at 24 h (physchem) [µg/mL] | Therm_solubility [1] [µg/mL] | half-life (in vivo) [h] |
| --- | --- | --- | --- |
| CC(C)(CC(O)(Cc1cc2cc(N3CCOCC3)ncc2[nH]1)C(F)(F)F)c1cccc(S(C)(=O)=O)c1 (stereo not drawn) | 47 (≈ 89.4 µM) |  |  |
| CCS(=O)(=O)c1cc2cc(C[C@](O)(CC(C)(C)c3ccc(F)cc3C(N)=O)C(F)(F)F)[nH]c2cn1 [BI 653048] |  | 5 | 4.2 |
